Source: ChEMBL document CHEMBL1140203, “cis-4-(Piperazin-1-yl)-5,6,7a,8,9,10,11,11a-octahydrobenzofuro[2,3-h]quinazolin-2-amine (A-987306), a new histamine H4R antagonist that blocks pain responses against carrageenan-induced hyperalgesia” (J Med Chem, 2008)

How the values were obtained:
Thromboxane A2 receptor = target: T1, Thromboxane A2 receptor (Homo sapiens, UniProt P21731)
T1 sequence (P21731 whole entry): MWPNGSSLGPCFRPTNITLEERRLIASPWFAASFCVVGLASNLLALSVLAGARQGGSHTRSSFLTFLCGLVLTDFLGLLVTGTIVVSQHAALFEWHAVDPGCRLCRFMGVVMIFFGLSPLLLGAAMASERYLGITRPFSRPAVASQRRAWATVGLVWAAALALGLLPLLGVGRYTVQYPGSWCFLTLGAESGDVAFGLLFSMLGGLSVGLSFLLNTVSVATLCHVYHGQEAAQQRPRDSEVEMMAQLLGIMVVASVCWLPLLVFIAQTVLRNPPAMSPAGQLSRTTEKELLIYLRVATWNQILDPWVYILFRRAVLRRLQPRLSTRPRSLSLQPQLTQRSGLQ

[1] = target: 5-hydroxytryptamine receptor 2B (Homo sapiens, UniProt P41595); format: functional
[2] = target: T2, Histamine H4 receptor (Mus musculus) (UniProt Q91ZY2)
T2 sequence (whole entry): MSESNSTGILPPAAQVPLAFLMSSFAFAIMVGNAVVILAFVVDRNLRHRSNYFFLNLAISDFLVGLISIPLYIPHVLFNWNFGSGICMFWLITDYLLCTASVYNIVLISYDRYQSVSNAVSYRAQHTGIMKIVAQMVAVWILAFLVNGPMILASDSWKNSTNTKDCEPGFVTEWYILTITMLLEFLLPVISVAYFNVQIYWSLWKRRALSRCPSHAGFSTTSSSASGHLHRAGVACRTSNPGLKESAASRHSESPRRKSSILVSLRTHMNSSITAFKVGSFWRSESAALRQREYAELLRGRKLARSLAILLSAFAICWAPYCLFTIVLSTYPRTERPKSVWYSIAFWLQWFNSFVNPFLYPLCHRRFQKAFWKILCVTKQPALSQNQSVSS

Mus musculus [3] = species on record: Mus musculus; format: functional, organism-based, BALB/c
Histamine H4 receptor [4] = target: T3, Histamine H4 receptor (Homo sapiens, UniProt Q9H3N8); experiment: biochemical; format: cell-based, HEK293
[5] = target: T4, 5-hydroxytryptamine receptor 2C (Homo sapiens, UniProt P28335)
T4 sequence (P28335 whole entry): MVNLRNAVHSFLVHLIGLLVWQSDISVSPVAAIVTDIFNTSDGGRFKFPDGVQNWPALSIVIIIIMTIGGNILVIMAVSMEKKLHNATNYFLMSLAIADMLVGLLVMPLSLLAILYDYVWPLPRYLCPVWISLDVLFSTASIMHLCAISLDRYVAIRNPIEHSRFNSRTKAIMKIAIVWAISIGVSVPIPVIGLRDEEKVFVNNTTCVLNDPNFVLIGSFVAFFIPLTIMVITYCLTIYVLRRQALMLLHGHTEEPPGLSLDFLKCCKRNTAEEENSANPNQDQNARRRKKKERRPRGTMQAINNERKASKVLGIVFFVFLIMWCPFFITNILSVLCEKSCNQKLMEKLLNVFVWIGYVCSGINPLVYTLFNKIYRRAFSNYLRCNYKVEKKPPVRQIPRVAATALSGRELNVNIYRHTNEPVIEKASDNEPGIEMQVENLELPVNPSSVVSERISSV

Mus musculus [6] = species on record: Mus musculus; experiment: animal or person; format: functional; settings: CD-1(ICR), ip
in vivo [7] = settings: Sprague-Dawley, rat, po, 10 mg/kg
[8] = target: Histamine H4 receptor (Rattus norvegicus) (UniProt Q91ZY1)
Histamine H3 receptor [9] = target: Histamine H3 receptor (Homo sapiens, UniProt Q9Y5N1)
in vivo [10] = settings: Sprague-Dawley, rat, ip, 10 mg/kg
Vasopressin V1a receptor = Vasopressin V1a receptor (Homo sapiens, UniProt P37288)
in vivo [11] = settings: Sprague-Dawley, rat, po, 10 mg/kg; remark: listed apart in the source
in vivo [12] = settings: Sprague-Dawley, rat, ip, 10 mg/kg; remark: listed apart in the source
in vivo [13] = settings: Sprague-Dawley, rat, ip, 10 mg/kg; remark: listed apart in the source
Histamine H3 receptor [14] = target: Histamine H3 receptor (Rattus norvegicus, UniProt Q9QYN8)
Histamine H4 receptor [15] = target: T3, Histamine H4 receptor; settings: HEK293
Substance-K receptor = target: T5, Substance-K receptor (Homo sapiens, UniProt P21452)
T5 sequence (P21452 whole entry): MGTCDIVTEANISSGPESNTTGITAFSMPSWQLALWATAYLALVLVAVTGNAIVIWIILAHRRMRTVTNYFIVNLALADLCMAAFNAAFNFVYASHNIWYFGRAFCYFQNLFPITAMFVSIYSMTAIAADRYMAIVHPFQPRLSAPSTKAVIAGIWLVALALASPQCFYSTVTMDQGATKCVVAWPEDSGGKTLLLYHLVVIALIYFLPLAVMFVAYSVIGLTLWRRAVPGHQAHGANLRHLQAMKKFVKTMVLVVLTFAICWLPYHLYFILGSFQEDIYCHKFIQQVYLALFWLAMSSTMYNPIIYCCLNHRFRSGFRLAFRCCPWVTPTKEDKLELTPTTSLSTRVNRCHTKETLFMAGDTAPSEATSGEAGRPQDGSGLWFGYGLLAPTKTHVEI

Rattus norvegicus [16] = species on record: Rattus norvegicus; settings: in vivo, ip, 100 umol/kg
in vivo [17] = settings: Sprague-Dawley, rat, po, 10 mg/kg; remark: listed apart in the source
Histamine H1 receptor = Histamine H1 receptor (Homo sapiens, UniProt P35367)
Histamine H4 receptor [18] = target: Histamine H4 receptor (Rattus norvegicus, UniProt Q91ZY1); experiment: biochemical; format: cell-based, HEK293
Rattus norvegicus [19] = species on record: Rattus norvegicus; experiment: animal or person; format: functional; settings: ip
in vivo [20] = settings: Sprague-Dawley, rat, ip, 10 mg/kg; remark: listed apart in the source
[21] = target: T6, C-C chemokine receptor type 1 (Homo sapiens, UniProt P32246)
T6 sequence (P32246 whole entry): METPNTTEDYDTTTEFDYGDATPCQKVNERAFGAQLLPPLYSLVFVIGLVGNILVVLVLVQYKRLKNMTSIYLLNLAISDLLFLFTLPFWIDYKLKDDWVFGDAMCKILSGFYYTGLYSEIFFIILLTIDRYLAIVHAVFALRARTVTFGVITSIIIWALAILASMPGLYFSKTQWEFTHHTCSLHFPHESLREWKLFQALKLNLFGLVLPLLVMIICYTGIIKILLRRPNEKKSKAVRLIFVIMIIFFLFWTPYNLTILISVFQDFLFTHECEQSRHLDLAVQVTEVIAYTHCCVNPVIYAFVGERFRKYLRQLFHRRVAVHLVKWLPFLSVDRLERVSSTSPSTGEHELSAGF

in vitro = settings: Sprague-Dawley, rat, plasma
Histamine H2 receptor = Histamine H2 receptor (Homo sapiens, UniProt P25021)
in vivo [22] = settings: Sprague-Dawley, rat, po, 10 mg/kg; remark: listed apart in the source
Rattus norvegicus [23] = species on record: Rattus norvegicus; settings: in vivo, ip, 30 umol/kg
Mus musculus [24] = species on record: Mus musculus; settings: CD-1(ICR), in vivo, ip, 0.3 umol/kg
[25] = target: T7, Muscarinic acetylcholine receptor M5 (Homo sapiens, UniProt P08912)
T7 sequence (P08912 whole entry): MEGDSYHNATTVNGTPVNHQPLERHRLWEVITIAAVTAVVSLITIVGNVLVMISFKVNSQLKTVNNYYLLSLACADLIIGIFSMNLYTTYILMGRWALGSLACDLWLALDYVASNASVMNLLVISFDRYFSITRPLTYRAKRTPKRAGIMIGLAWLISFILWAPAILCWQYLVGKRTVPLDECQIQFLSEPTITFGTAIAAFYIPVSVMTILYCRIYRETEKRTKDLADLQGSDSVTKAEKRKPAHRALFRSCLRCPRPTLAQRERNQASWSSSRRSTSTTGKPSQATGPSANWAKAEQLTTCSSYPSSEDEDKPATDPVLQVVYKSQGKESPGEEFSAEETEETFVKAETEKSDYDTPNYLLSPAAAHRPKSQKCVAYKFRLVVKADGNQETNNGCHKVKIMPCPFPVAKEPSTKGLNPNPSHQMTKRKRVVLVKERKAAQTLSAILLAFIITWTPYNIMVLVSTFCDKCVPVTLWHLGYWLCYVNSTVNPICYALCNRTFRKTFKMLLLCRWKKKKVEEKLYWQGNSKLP

[26] = target: Small conductance calcium-activated potassium channel protein 1 (Homo sapiens, UniProt Q92952)
[27] = target: T4, 5-hydroxytryptamine receptor 2C; remark: listed apart in the source

Chain of Histamine H2 receptor (P25021 whole entry): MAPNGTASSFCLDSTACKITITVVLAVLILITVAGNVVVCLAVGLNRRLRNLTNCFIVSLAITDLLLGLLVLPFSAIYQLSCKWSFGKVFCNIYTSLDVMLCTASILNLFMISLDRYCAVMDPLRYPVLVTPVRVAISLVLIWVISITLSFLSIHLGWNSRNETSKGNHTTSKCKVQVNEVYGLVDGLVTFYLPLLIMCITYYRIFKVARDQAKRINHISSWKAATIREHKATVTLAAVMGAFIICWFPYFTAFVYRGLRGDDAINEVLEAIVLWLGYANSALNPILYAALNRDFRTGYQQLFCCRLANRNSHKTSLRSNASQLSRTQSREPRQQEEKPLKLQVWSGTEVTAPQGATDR
Chain of 5-hydroxytryptamine receptor 2B (P41595 whole entry): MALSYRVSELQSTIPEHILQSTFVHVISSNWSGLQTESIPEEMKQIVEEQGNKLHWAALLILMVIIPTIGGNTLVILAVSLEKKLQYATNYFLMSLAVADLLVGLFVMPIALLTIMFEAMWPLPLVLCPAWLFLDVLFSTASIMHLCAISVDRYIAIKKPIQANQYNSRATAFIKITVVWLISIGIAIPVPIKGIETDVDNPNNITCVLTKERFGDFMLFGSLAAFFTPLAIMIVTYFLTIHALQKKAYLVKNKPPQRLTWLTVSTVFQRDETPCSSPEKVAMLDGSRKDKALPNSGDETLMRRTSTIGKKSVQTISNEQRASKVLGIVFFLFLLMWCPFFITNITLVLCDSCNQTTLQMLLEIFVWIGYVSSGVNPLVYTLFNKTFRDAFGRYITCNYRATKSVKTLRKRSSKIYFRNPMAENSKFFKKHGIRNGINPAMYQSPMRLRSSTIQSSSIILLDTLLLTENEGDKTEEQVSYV
T3 sequence (Q9H3N8 whole entry): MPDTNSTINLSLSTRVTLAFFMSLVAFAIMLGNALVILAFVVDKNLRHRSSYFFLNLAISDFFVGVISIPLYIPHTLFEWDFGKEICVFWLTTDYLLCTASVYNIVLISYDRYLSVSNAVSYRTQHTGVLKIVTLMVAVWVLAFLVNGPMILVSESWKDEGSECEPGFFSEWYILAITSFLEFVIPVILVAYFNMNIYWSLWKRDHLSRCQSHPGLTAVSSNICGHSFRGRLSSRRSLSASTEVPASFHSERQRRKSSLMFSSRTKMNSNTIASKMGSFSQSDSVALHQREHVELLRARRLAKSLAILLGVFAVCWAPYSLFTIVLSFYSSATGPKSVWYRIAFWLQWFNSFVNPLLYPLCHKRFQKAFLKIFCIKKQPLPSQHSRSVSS
Chain of Small conductance calcium-activated potassium channel protein 1 (Q92952 whole entry): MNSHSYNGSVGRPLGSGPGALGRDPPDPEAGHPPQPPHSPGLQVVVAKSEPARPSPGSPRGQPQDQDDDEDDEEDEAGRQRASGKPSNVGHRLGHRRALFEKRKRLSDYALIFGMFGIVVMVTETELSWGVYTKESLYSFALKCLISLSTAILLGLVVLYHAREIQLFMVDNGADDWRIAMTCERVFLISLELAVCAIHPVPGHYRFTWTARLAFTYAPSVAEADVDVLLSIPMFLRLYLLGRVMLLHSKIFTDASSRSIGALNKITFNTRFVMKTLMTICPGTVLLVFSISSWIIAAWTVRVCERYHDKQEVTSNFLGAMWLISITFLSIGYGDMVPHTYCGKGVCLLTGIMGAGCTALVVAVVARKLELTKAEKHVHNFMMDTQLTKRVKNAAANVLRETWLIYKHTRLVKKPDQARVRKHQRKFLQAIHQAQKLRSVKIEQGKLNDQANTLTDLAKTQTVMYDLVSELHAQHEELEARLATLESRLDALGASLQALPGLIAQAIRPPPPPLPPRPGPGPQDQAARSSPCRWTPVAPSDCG
Chain of Vasopressin V1a receptor (P37288 whole entry): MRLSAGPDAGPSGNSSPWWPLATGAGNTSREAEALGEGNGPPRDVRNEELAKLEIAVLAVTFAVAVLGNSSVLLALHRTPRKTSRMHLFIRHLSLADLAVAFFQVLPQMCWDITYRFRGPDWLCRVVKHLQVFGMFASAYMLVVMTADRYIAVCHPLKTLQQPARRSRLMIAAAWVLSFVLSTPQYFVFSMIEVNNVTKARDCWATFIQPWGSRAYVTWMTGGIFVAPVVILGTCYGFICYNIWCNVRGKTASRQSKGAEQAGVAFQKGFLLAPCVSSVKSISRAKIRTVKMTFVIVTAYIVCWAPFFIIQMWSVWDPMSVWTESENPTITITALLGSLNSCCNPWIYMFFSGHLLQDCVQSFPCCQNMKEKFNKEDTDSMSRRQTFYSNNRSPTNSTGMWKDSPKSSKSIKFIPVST
Chain of Histamine H1 receptor (P35367 whole entry): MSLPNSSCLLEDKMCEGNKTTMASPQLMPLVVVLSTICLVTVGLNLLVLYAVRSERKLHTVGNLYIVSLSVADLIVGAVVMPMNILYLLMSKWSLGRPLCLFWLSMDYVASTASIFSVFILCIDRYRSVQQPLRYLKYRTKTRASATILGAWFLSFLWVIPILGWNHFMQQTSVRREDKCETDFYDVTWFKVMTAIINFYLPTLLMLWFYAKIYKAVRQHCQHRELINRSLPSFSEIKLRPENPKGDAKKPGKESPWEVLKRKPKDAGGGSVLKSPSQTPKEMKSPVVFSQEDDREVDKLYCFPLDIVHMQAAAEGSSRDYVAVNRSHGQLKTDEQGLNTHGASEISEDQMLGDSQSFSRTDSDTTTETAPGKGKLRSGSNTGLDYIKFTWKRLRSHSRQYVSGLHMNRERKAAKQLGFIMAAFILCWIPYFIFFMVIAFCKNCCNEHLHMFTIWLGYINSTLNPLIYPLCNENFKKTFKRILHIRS
Chain of Histamine H3 receptor (Homo sapiens, UniProt Q9Y5N1) (Q9Y5N1 whole entry): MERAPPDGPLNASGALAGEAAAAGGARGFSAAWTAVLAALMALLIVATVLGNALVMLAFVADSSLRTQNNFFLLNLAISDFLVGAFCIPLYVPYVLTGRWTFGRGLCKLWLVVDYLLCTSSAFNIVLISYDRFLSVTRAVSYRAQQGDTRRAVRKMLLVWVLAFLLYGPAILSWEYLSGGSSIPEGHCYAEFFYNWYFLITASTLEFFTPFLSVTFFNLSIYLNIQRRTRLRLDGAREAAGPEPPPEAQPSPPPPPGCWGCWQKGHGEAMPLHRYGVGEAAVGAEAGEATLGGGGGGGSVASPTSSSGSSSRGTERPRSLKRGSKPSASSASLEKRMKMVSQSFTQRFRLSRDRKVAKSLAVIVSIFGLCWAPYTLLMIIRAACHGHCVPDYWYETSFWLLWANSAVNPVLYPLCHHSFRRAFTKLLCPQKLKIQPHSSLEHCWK
Chain of Histamine H3 receptor (Rattus norvegicus, UniProt Q9QYN8) (Q9QYN8 whole entry): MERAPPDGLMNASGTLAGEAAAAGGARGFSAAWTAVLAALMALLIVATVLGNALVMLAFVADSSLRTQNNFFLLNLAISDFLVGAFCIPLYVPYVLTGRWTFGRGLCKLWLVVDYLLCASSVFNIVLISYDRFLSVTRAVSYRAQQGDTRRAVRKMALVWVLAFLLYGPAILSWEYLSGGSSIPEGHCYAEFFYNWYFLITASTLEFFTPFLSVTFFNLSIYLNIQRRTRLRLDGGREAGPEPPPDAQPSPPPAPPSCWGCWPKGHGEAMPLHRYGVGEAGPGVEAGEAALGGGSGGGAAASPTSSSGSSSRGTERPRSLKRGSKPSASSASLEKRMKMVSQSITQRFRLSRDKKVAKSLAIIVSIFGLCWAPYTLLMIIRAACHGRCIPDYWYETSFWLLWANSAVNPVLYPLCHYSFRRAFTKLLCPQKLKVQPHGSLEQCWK
Chain of Histamine H4 receptor (Rattus norvegicus, UniProt Q91ZY1) (Q91ZY1 whole entry): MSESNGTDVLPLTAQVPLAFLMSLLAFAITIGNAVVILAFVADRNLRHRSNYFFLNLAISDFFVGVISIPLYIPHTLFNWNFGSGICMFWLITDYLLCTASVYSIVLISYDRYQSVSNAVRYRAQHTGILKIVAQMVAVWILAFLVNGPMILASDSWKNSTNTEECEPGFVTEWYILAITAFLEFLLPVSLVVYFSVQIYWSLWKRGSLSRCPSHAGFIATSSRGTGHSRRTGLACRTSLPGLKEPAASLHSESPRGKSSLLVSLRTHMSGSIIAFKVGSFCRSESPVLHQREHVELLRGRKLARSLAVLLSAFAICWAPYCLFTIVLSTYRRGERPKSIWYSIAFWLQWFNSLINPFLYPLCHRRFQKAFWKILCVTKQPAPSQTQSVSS
Chain of Histamine H4 receptor (Rattus norvegicus) (Q91ZY1 whole entry): as above

CCCCC[C@H](O)/C=C/[C@H]1C2COC(C2)[C@@H]1C/C=C\CCCC(=O)O (some centres not stated)
IC50 (Thromboxane A2 receptor): 37 nM
Ki (Thromboxane A2 receptor): 16 nM

COc1cc(CC(C)N)c(OC)cc1I (racemic)
IC50 [1]: 3.5 nM
Ki [1]: 3.5 nM

Nc1nc2c(c(N3CCNCC3)n1)CCC1=C2[C@@H]2CCCC[C@@H]2O1 (relative stereo)
pKb [2]: 8.2
IC50 (Mus musculus [3]): 125 µmol/kg
Ki (Histamine H4 receptor [4]): 5.75 nM
IC50 [5]: 11700 nM
ED50 (Mus musculus [6]): 0.36 µmol/kg
half-life (in vivo [7]): 3.7 h
pKb [8]: 8.3
Ki (Histamine H3 receptor [9]): 933 nM
Cmax (in vivo [10]): 1730 nM
IC50 (Vasopressin V1a receptor): 3.9 nM
Ki (Vasopressin V1a receptor): 2.4 nM
bioavailability (in vivo [11]): 26%
bioavailability (in vivo [12]): 72%
half-life (in vivo [13]): 4.7 h
Ki (Histamine H3 receptor [14]): 13.5 nM
pKb (Histamine H4 receptor [15]): 8.33
IC50 (Substance-K receptor): 5.7 nM
Ki (Substance-K receptor): 3.1 nM
Cp (Rattus norvegicus [16]): 2900 ng/mL
Tmax (in vivo [17]): 1.5 h
Ki (Histamine H1 receptor): 3550 nM
Ki (Histamine H4 receptor [18]): 3.39 nM
ED50 (Rattus norvegicus [19]): 42 µmol/kg
Tmax (in vivo [20]): 0.25 h
IC50 [21]: 0.087 nM
Ki [21]: 0.043 nM
fraction unbound (in vitro): 0.41
Ki (Histamine H2 receptor): > 9120 nM
Cmax (in vivo [22]): 300 nM
Cp (Rattus norvegicus [23]): 610 ng/mL
Cp (Mus musculus [24]): 15 ng/mL

C[N+]1(C)CCC(OC(=O)C(c2ccccc2)c2ccccc2)CC1 [4-DAMP]
IC50 [25]: 0.83 nM
Ki [25]: 0.42 nM

CC(C)C[C@@H]1NC(=O)[C@H](C)NC(=O)[C@H]([C@@H](C)O)NC(=O)[C@H](CCC(=O)O)NC(=O)[C@@H]2CCCN2C(=O)[C@H](C)NC(=O)[C@H](CCCCN)NC(=O)[C@@H]2CSSC[C@@H](C(=O)N[C@@H](CCC(N)=O)C(=O)N[C@@H](CCC(N)=O)C(=O)N[C@@H](Cc3cnc[nH]3)C(N)=O)NC(=O)[C@H](CCCNC(=N)N)NC(=O)[C@H](CCCNC(=N)N)NC(=O)[C@H](C)NC(=O)[C@H](CSSC[C@H](N)C(=O)N[C@@H](CC(N)=O)C(=O)N2)NC1=O [APAMIN]
IC50 [26]: 0.014 nM
Ki [26]: 0.0068 nM

CN1CCN(C(=O)c2cc3cc(Cl)ccc3[nH]2)CC1 [JNJ-7777120]
Ki (Histamine H2 receptor): > 8510 nM

COc1cc(OC)c(C(=O)CCCCN2CCC3(CC2)NC(=O)NC3=O)cc1NS(=O)(=O)c1ccc(C(F)(F)F)cc1 [RS-102,221]
IC50 [27]: 8.3 nM
Ki [27]: 3.9 nM
